The source of these data is patent US6638973B2, “Taxane formulations” (FSU Research Foundation, Inc., priority 2000, dated 2003).

pIC50: −log10 of the molar value.

The test system of one test is HCT116 cells. The test is described as follows: In vitro cytotoxicity measured by the cell colony formation assay. Type of test: cell-based. The note with it: HCT116 colony formation; 72 h drug incubation, colonies counted after 7 days; Example 5, C-7 ester/C-10 hydroxy taxanes; read-out: IN VITRO ID 50 (nm) HCT116. How it is done: (§1) Four hundred cells (HCT116) were plated in 60 mm Petri dishes containing 2.7 mL of medium (modified McCoy's 5a medium containing 10% fetal bovine serum and 100 units/mL penicillin and 100 µg/mL streptomycin). The cells were incubated in a CO2 incubator at 37° C. for 5 h for attachment to the bottom of Petri dishes. The compounds identified in Example 2 were made up fresh in medium at ten times the final concentration, and then 0.3 mL of this stock solution was added to the 2.7 mL of medium in the dish. The cells were then incubated with drugs for 72 h at 37° C. At the end of incubation the drug-containing media were decanted, the dishes were rinsed with 4 mL of Hank's Balance Salt Solution (HBSS), 5 mL of fresh medium was added, and the dishes were returned to the incubator for colony formation. The cell colonies were counted using a colony counter after incubation for 7 days.
as §1, with “Example 7” for “Example 2”
as §1, with “Example 22” for “Example 2”
as §1, with “Example 27” for “Example 2”
Four hundred cells (HCT116) were plated in 60 mm Petri dishes containing 2.7 mL of medium (modified McCoy's 5a medium containing 10% fetal bovine serum and 100 units/mL penicillin and 100 µg/mL streptomycin). The cells were incubated in a CO2 incubator at 37° C. for 5 h for attachment to the bottom of Petri dishes. […]
Take `CCC(=O)O[C@H]1C[C@H]2OC[C@@]2(OC(C)=O)C2[C@H](OC(=O)c3ccccc3)[C@]3(O)C[C@H](OC(=O)[C@H](O)[C@H](C=C(C)C)NC(=O)OC(C)(C)C)C(C)=C([C@@H](O)C(=O)[C@@]21C)C3(C)C` (stereo partly shown) [Compound 1351]: the pIC50 was over 9.00.

As for `CCC(=O)O[C@H]1C[C@H]2OC[C@@]2(OC(C)=O)C2[C@H](OC(=O)c3ccccc3)[C@]3(O)C[C@H](OC(=O)[C@H](O)[C@@H](NC(=O)OC(C)(C)C)c4ccccn4)C(C)=C([C@@H](O)C(=O)[C@@]21C)C3(C)C` (stereo partly shown) [Compound 1364], the pIC50 was over 8.00.

Still in this test, the particulars now being: HCT116 colony formation; 72 h drug incubation, colonies counted after 7 days; Example 10, C-10 ester/C-7 hydroxy taxanes; read-out: IN VITRO ID 50 (nm) HCT116.
On to `CC(=O)O[C@@]12CO[C@@H]1C[C@H](O)[C@@]1(C)C(=O)[C@H](OC(=O)C3CC3)C3=C(C)[C@@H](OC(=O)[C@H](O)[C@H](C=C(C)C)NC(=O)OC(C)(C)C)C[C@@](O)([C@@H](OC(=O)c4ccccc4)C12)C3(C)C` (stereo partly shown) [Compound 0838], for which the pIC50 is over 9.00.

For the compound `CC(=O)O[C@@]12CO[C@@H]1C[C@H](O)[C@@]1(C)C(=O)[C@H](OC(=O)C3CC3)C3=C(C)[C@@H](OC(=O)[C@H](O)[C@@H](NC(=O)OC(C)(C)C)c4ccco4)C[C@@](O)([C@@H](OC(=O)c4ccccc4)C12)C3(C)C` (stereo partly shown) [Compound 0843], the pIC50 was over 9.00.

Take `CC(=O)O[C@@]12CO[C@@H]1C[C@H](O)[C@@]1(C)C(=O)[C@H](OC(=O)C3CC3)C3=C(C)[C@@H](OC(=O)[C@H](O)[C@@H](NC(=O)OC(C)(C)C)c4cccs4)C[C@@](O)([C@@H](OC(=O)c4ccccc4)C12)C3(C)C` (stereo partly shown) [Compound 0854]: the pIC50 was over 9.00.

Regarding `CC(=O)O[C@@]12CO[C@@H]1C[C@H](O)[C@@]1(C)C(=O)[C@H](OC(=O)C3CC3)C3=C(C)[C@@H](OC(=O)[C@H](O)[C@@H](NC(=O)OC(C)(C)C)C4CC4)C[C@@](O)([C@@H](OC(=O)c4ccccc4)C12)C3(C)C` (stereo partly shown) [Compound 0860], the pIC50 was over 9.00.

For the compound `CC(=O)O[C@@]12CO[C@@H]1C[C@H](O)[C@@]1(C)C(=O)[C@H](OC(=O)C3CC3)C3=C(C)[C@@H](OC(=O)[C@H](O)[C@@H](NC(=O)OC(C)(C)C)c4ccc([N+](=O)[O-])cc4)C[C@@](O)([C@@H](OC(=O)c4ccccc4)C12)C3(C)C` (stereo partly shown) [Compound 0879], the pIC50 was over 9.00.

With `CC(=O)O[C@@]12CO[C@@H]1C[C@H](O)[C@@]1(C)C(=O)[C@H](OC(=O)C3CC3)C3=C(C)[C@@H](OC(=O)[C@H](O)[C@@H](NC(=O)OC(C)(C)C)c4ccccc4)C[C@@](O)([C@@H](OC(=O)c4ccccc4)C12)C3(C)C` (stereo partly shown) [Compound 0882], the pIC50 was over 9.00.

For `CC(=O)O[C@@]12CO[C@@H]1C[C@H](O)[C@@]1(C)C(=O)[C@H](OC(=O)C3CC3)C3=C(C)[C@@H](OC(=O)[C@H](O)[C@H](C=C(C)C)NC(=O)c4ccccc4)C[C@@](O)([C@@H](OC(=O)c4ccccc4)C12)C3(C)C` (stereo partly shown) [Compound 0890], the pIC50 was over 9.00.

Consider `CC(=O)O[C@@]12CO[C@@H]1C[C@H](O)[C@@]1(C)C(=O)[C@H](OC(=O)C3CC3)C3=C(C)[C@@H](OC(=O)[C@H](O)[C@@H](NC(=O)c4ccccc4)c4ccco4)C[C@@](O)([C@@H](OC(=O)c4ccccc4)C12)C3(C)C` (stereo partly shown) [Compound 0908], for which the pIC50 was over 9.00.

Regarding `CC(=O)O[C@@]12CO[C@@H]1C[C@H](O)[C@@]1(C)C(=O)[C@H](OC(=O)C3CC3)C3=C(C)[C@@H](OC(=O)[C@H](O)[C@@H](NC(=O)c4ccccc4)c4cccs4)C[C@@](O)([C@@H](OC(=O)c4ccccc4)C12)C3(C)C` (stereo partly shown) [Compound 0919], the pIC50 is over 9.00.

With `CC(=O)O[C@@]12CO[C@@H]1C[C@H](O)[C@@]1(C)C(=O)[C@H](OC(=O)C3CC3)C3=C(C)[C@@H](OC(=O)[C@H](O)[C@@H](NC(=O)c4ccccc4)C4CC4)C[C@@](O)([C@@H](OC(=O)c4ccccc4)C12)C3(C)C` (stereo partly shown) [Compound 0923], the pIC50 was over 9.00.

In the case of `CC(=O)O[C@@]12CO[C@@H]1C[C@H](O)[C@@]1(C)C(=O)[C@H](OC(=O)C3CC3)C3=C(C)[C@@H](OC(=O)[C@H](O)[C@@H](NC(=O)c4ccccc4)c4ccccc4)C[C@@](O)([C@@H](OC(=O)c4ccccc4)C12)C3(C)C` (stereo partly shown) [Compound 0937], the pIC50 was over 8.00.

Regarding `CCCC(=O)O[C@H]1C(=O)[C@@]2(C)C([C@H](OC(=O)c3ccccc3)[C@]3(O)C[C@H](OC(=O)[C@H](O)[C@H](C=C(C)C)NC(=O)OC(C)(C)C)C(C)=C1C3(C)C)[C@]1(OC(C)=O)CO[C@@H]1C[C@@H]2O` (stereo partly shown) [Compound 0947], the pIC50 is over 9.00.

As to `CCCC(=O)O[C@H]1C(=O)[C@@]2(C)C([C@H](OC(=O)c3ccccc3)[C@]3(O)C[C@H](OC(=O)[C@H](O)[C@@H](NC(=O)OC(C)(C)C)c4ccccn4)C(C)=C1C3(C)C)[C@]1(OC(C)=O)CO[C@@H]1C[C@@H]2O` (stereo partly shown) [Compound 0951], the pIC50 was over 9.00.

In the case of `CCCC(=O)O[C@H]1C(=O)[C@@]2(C)C([C@H](OC(=O)c3ccccc3)[C@]3(O)C[C@H](OC(=O)[C@H](O)[C@@H](NC(=O)OC(C)(C)C)c4cccnc4)C(C)=C1C3(C)C)[C@]1(OC(C)=O)CO[C@@H]1C[C@@H]2O` (stereo partly shown) [Compound 0966], the pIC50 is over 8.00.

In the case of `CCCC(=O)O[C@H]1C(=O)[C@@]2(C)C([C@H](OC(=O)c3ccccc3)[C@]3(O)C[C@H](OC(=O)[C@H](O)[C@@H](NC(=O)OC(C)(C)C)c4ccncc4)C(C)=C1C3(C)C)[C@]1(OC(C)=O)CO[C@@H]1C[C@@H]2O` (stereo partly shown) [Compound 0978], the pIC50 was over 9.00.

Turning to `CCCC(=O)O[C@H]1C(=O)[C@@]2(C)C([C@H](OC(=O)c3ccccc3)[C@]3(O)C[C@H](OC(=O)[C@H](O)[C@@H](NC(=O)OC(C)(C)C)c4ccco4)C(C)=C1C3(C)C)[C@]1(OC(C)=O)CO[C@@H]1C[C@@H]2O` (stereo partly shown) [Compound 0983], the pIC50 is over 9.00.

In the case of `CCCC(=O)O[C@H]1C(=O)[C@@]2(C)C([C@H](OC(=O)c3ccccc3)[C@]3(O)C[C@H](OC(=O)[C@H](O)[C@@H](NC(=O)OC(C)(C)C)c4ccoc4)C(C)=C1C3(C)C)[C@]1(OC(C)=O)CO[C@@H]1C[C@@H]2O` (stereo partly shown) [Compound 0999], the pIC50 was over 9.00.

Regarding `CCCC(=O)O[C@H]1C(=O)[C@@]2(C)C([C@H](OC(=O)c3ccccc3)[C@]3(O)C[C@H](OC(=O)[C@H](O)[C@@H](NC(=O)OC(C)(C)C)c4cccs4)C(C)=C1C3(C)C)[C@]1(OC(C)=O)CO[C@@H]1C[C@@H]2O` (stereo partly shown) [Compound 1003], the pIC50 was over 9.00.

For the compound `CCCC(=O)O[C@H]1C(=O)[C@@]2(C)C([C@H](OC(=O)c3ccccc3)[C@]3(O)C[C@H](OC(=O)[C@H](O)[C@@H](NC(=O)OC(C)(C)C)c4ccsc4)C(C)=C1C3(C)C)[C@]1(OC(C)=O)CO[C@@H]1C[C@@H]2O` (stereo partly shown) [Compound 1011], the pIC50 is over 9.00.

Take `CCCC(=O)OC1C(=O)C2(C)C(O)CC3OCC3(OC(C)=O)C2C(OC(=O)c2ccccc2)C2(O)CC(OC(=O)C(O)C(NC(=O)OC(C)(C)C)C3CC3)C(C)=C1C2(C)C` (stereo not shown) [Compound 1020]: the pIC50 is over 9.00.

Consider `CCCC(=O)OC1C(=O)C2(C)C(O)CC3OCC3(OC(C)=O)C2C(OC(=O)c2ccccc2)C2(O)CC(OC(=O)C(O)C(NC(=O)OC(C)(C)C)C(C)C)C(C)=C1C2(C)C` (stereo not shown) [Compound 1031], for which the pIC50 is over 8.00.

For `CCCC(=O)OC1C(=O)C2(C)C(O)CC3OCC3(OC(C)=O)C2C(OC(=O)c2ccccc2)C2(O)CC(OC(=O)C(O)C(NC(=O)OC(C)(C)C)C3CCC3)C(C)=C1C2(C)C` (stereo not shown) [Compound 1044], the pIC50 is over 9.00.

With `CCCC(=O)OC1C(=O)C2(C)C(O)CC3OCC3(OC(C)=O)C2C(OC(=O)c2ccccc2)C2(O)CC(OC(=O)C(O)C(NC(=O)OC(C)(C)C)c3ccccc3)C(C)=C1C2(C)C` (stereo not shown) [Compound 1060], the pIC50 was over 9.00.
